Source: US12606863B2, “Bioluminescent detection of DNA synthesis” (Promega Corporation, priority 2021, dated 2026)

Tests used:
Assay type in all cases: cell-based
A549 cells [1] = assay: Incorporation of modified nucleosides into newly synthesized DNA, detection with HT-LgBiT/HT-SmBiT (NANOBiT), Example 1; conditions: A549 500 cells/well, 10 uM, 4 hours, fixed, permeabilized, DNA denatured; HT-LgBiT and HT-SmBiT 50 nM
Description: A549 cells plated at 500 cells/well were cultured in medium containing PBI-7931 (FIG. 2A, top) or PBI-7960 (FIG. 2A, bottom) at 10 uM final concentration for 4 hours. Cells without modified nucleosides were used as control. After culturing, the media was removed, cells fixed, permeabilized, and DNA denatured using acid treatment. […] Following a one-hour incubation, NANOLUC substrate was added, and luminescence was measured (FIG. 2B).

A549 cells [2] = assay: Simultaneous incorporation of modified nucleosides, all probes added together, NanoBiT detection, Example 8; conditions: all probes added together at 5 or 12.5 uM each; A549 5,000 and 1,000 cells per well; compared to control cells
Description: (§1) Cells without modified nucleosides were used as a control (brown bars). Incorporation of modified nucleosides into DNA was determined by removing the media, fixing and permeabilizing the cells, denaturing DNA, and incubating with HaloTag-LgBiT (HT-LgBiT) and HaloTag-SmBiT (HT-SmBiT) diluted in PBS with 0.01% BSA at 50 nM final concentration. After 2 hours incubation, the reagents were removed, the samples were washed with PBS, NanoLuc substrate was added, and luminescence was measured (FIG. 4).
The experiment was conducted with A549 cells plated at 5,000 and 1,000 cells per well as described in Example 7.

A549 cells [3] = assay: Incorporation of modified chloroalkane nucleoside measured without DNA denaturation, Example 9; conditions: A549 5000 cells/well, 10 uM, 0.5 hours or 4 hours; HT-LgBiT and HT-SmBiT 25 nM
Description: A549 cells plated at 5000 cells/well were cultured in medium containing PBI-7960 at 10 uM final concentration for 0.5 hours (light blue bar) or 4 hours (dark blue bar). Cells without modified nucleosides were used as control (brown bar). Incorporation of modified nucleosides into DNA was determined by removing the media, fixing and permeabilizing the cells and incubating with HT-LgBiT and HT-SmBiT diluted in PBS with 0.01% BSA at 25 nM final concentration. After 1 hour incubation, the NanoLuc substrate was added, and luminescence was measured.

A549 cells [4] = assay: Incorporation of modified nucleosides into newly synthesized DNA, NanoBiT detection, Example 7; conditions: A549 5000 cells/well, 20 uM or 50 uM, 4.5 hours
Description: as §1, with “A549 cells plated at 5000 cells/well were cultured in medium containing PBI-9391, PBI-9392, or PBI-9393 at 20 uM (light blue bars) or 50 uM (dark blue bars) final concentration for 4.5 hours. Cells” for “Cells”

A549 cells [5] = assay: Inhibition of DNA replication measured by modified nucleoside incorporation and NANOBiT luminescence, Example 2; conditions: A549 2,000 cells/well, increasing doxorubicin for 2 hours, then PBI-7931 or -7960 at 10 uM for 4 hours
Description: A549 cells plated at 2,000 cells/well were treated with increasing concentrations of the DNA replication inhibitor doxorubicin for 2 hours in a tissue culture incubator. […] No compound was added to control cells. To measure the amount of newly synthesized DNA, HT-LgBiT and HT-SmBiT were added to the cells at 50 nM final concentration.

Compound | Luminescence following incorporation of haloalkyl-modified nucleosides into newly-synthesized DNA (FIG. 2B) (A549 cells [1]) | Light output after simultaneous incorporation into newly synthesized DNA (FIG. 5) (A549 cells [2]) | Incorporation detected without DNA denaturation (FIG. 6) (A549 cells [3]) | Incorporation into newly synthesized DNA detected via NanoBiT (FIG. 4) (A549 cells [4]) | Inhibition of DNA synthesis, detected by reduction in luminescence (FIG. 3) (A549 cells [5])
O=C(NCCOCCOCCCCCCCl)OCC#Cc1cn([C@H]2CC(O)[C@@H](CO)O2)c(=O)[nH]c1=O (some centres unmarked) [PBI-7931] | Luminescence detected |  |  |  | 
O=C(NCC#Cc1cn([C@H]2C[C@H](O)[C@@H](CO)O2)c(=O)[nH]c1=O)c1ccc(C(=O)NCCOCCOCCCCCCCl)cc1 [PBI-7960, N1-(2-(2-((6-chlorohexyl)oxy)ethoxy)ethyl)-N4-(3-(1-((2R,4S,5R)-4-hydroxy-5-(hydroxymethyl)tetrahydrofuran-2-yl)-2,4-dioxo-1,2,3,4-tetrahydropyrimidin-5-yl)prop-2-yn-1-yl)terephthalamide] | Luminescence detected | increase in light output | detected without DNA denaturation |  | 
Nc1nc(=O)n([C@H]2C[C@H](O)[C@@H](CO)O2)cc1C#CCOC(=O)NCCOCCOCCCCCCCl [PBI-9391, 3-(4-amino-1-((2R,4S,5R)-4-hydroxy-5-(hydroxymethyl)tetrahydrofuran-2-yl)-2-oxo-1,2-dihydropyrimidin-5-yl)prop-2-yn-1-yl (2-(2-((6-chlorohexyl)oxy)ethoxy)ethyl)carbamate] |  | increase in light output |  | incorporated into newly synthesized DNA | 
Nc1nc(=O)c2c(C#CCOC(=O)NCCOCCOCCCCCCCl)cn([C@H]3C[C@H](O)[C@@H](CO)O3)c2[nH]1 [PBI-9392, 3-(2-amino-7-((2R,4S,5R)-4-hydroxy-5-(hydroxymethyl)tetrahydrofuran-2-yl)-4-oxo-4,7-dihydro-1H-pyrrolo[2,3-d]pyrimidin-5-yl)prop-2-yn-1-yl(2-(2-((6-chlorohexyl)oxy)ethoxy)ethyl)carbamate] |  | increase in light output |  | incorporated into newly synthesized DNA | 
Nc1ncnc2c1c(C#CCOC(=O)NCCOCCOCCCCCCCl)cn2[C@H]1C[C@H](O)[C@@H](CO)O1 [PBI-9393, 3-(4-amino-7-((2R,4S,5R)-4-hydroxy-5-(hydroxymethyl)tetrahydrofuran-2-yl)-7H-pyrrolo[2,3-d]pyrimidin-5-yl)prop-2-yn-1-yl(2-(2-((6-chlorohexyl)oxy)ethoxy)ethyl)carbamate] |  | increase in light output |  | incorporated into newly synthesized DNA | 
COc1cccc2c1C(=O)c1c(O)c3c(c(O)c1C2=O)C[C@@](O)(C(=O)CO)C[C@@H]3O[C@H]1C[C@H](N)[C@H](O)[C@H](C)O1 [doxorubicin] |  |  |  |  | Inhibition of DNA synthesis
